Columns and labels:
[1] = molecular target: T1, recombinant human 17β-HSD1 (Homo sapiens, UniProt P14061); experiment: Inhibition of recombinant human 17β-HSD1; assay type: biochemical; details: inhibitor at 1 μM; 30 nM estrone, 1 mM NADPH, 30 min at RT; read-out: 17β-HDS1 Inhibition % at 1 μM
T1 construct: made in house; host or cells: Sd9 (Sf9) insect cells, baculovirus (Bac to Bac Expression System)
T1 sequence (P14061 1-328): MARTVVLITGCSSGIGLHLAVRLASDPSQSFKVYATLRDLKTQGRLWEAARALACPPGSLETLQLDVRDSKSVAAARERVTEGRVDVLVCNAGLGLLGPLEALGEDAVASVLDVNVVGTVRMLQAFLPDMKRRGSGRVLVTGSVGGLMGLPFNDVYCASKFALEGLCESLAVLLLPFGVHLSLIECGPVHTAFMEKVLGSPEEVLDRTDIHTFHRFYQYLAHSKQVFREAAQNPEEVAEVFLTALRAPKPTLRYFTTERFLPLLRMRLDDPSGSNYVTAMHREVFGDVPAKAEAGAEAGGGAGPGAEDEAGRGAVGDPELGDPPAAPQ
Procedure, shortened: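 Microsomal enzyme from baculovirus-infected insect cells (1 μg/ml) incubated 30 min at RT in 20 mM KH2PO4 pH 7.4 with 30 nM ³H-estrone and 1 mM NADPH, inhibitor at 1 μM or 0.1 μM, 1% DMSO. TCA-stopped; estrone/estradiol separated by radio-HPLC; % inhibition = 100 − % conversion.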

[2] = molecular target: T2, recombinant human 17β-HSD2 (Homo sapiens, UniProt P37059); experiment: Inhibition of recombinant human 17β-HSD2; assay type: biochemical; details: inhibitor at 1 μM; 50 nM estradiol, 1 mM NADH, 30 min at RT; read-out: 17β-HSD2 Inhibition % at 1 μM
T2 construct: made in house; host or cells: Sd9 (Sf9) insect cells, baculovirus (Bac to Bac Expression System)
T2 sequence (P37059 1-387): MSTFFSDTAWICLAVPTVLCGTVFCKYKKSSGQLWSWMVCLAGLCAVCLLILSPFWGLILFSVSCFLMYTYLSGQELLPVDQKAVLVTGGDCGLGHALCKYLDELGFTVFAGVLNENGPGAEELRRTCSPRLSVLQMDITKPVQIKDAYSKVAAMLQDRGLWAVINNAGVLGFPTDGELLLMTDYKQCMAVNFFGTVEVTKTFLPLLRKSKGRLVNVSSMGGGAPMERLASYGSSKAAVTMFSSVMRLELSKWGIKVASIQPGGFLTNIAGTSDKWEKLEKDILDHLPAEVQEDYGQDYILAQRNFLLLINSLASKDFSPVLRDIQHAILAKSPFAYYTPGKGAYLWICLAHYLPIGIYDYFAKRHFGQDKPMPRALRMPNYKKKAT
Procedure, shortened: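 Membrane extract of baculovirus-expressed enzyme in Sf9 cells (4 μg/ml) incubated in 20 mM KH2PO4 pH 8.5 with 50 nM estradiol (³H-tracer) and 1 mM NADH, 30 min at RT, 1% DMSO, inhibitor at 1 μM or 0.1 μM. TCA-stopped; estradiol-to-estrone conversion by radio-HPLC; % inhibition = 100 − % conversion.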

SMILES	inhibition at 1 µM [1] [%]	inhibition at 1 µM [2] [%]
Cc1cnc(NC(=O)CC[C@@H]2CC(=O)[C@@]3(C)CCC4c5ccc(OC(=O)CN)cc5CCC4C23)s1 (stereo partly drawn) [Compound 16, Amino-acetic acid (13S,15R)-13-methyl-15-[2-(5-methylthiazol-2-ylcarbamoyl)-ethyl]-17-oxo-7,8,9,11,12,13,14,15,16,17-decahydro-6H-cyclopenta[a]phenanthren-3-yl ester]	93	0
Cc1cnc(NC(=O)CC[C@@H]2CC(=O)[C@@]3(C)CCC4c5cc6ncoc6c(Cl)c5CCC4C23)s1 (stereo partly drawn) [Compound 77, 3-((3R,12aS)-6-chloro-12a-methyl-1-oxo-2,3,3a,3b,4,5,10b,11,12,12a-decahydro-1H-cyclopenta[7,8]phenanthro[3,2-d]oxazol-3-yl)-N-(5-methylthiazol-2-yl)propanamide]	87	0
Cc1cnc(NC(=O)CC[C@@H]2C(Br)C(=O)[C@@]3(C)CCC4c5cc(Br)c(O)c(Br)c5CCC4C23)s1 (stereo partly drawn) [Compound 59, N-(5-methylthiazol-2-yl)-3-((13S,15S)-2,4,16-tribromo-3-hydroxy-13-methyl-17-oxo-7,8,9,11,12,13,14,15,16,17-decahydro-6H-cyclopenta[a]phenanthren-15-yl)propanamide]	79	2
Cc1cnc(NC(=O)CC[C@@H]2CC(=O)[C@@]3(C)CCC4c5cc(I)c(O)cc5CCC4C23)s1 (stereo partly drawn) [Compound 55, 3-((13S,15R)-3-hydroxy-2-iodo-13-methyl-17-oxo-7,8,9,11,12,13,14,15,16,17-decahydro-6H-cyclopenta[a]phenanthren-15-yl)-N-(5-methylthiazol-2-yl)propanamide]	98	7
Cc1cnc(NC(=O)CC[C@@H]2CC(=O)[C@@]3(C)CCC4c5cc([N+](=O)[O-])c(O)c(F)c5CCC4C23)s1 (stereo partly drawn) [Compound 73, 3-((13S,15R)-4-fluoro-3-hydroxy-13-methyl-2-nitro-17-oxo-7,8,9,11,12,13,14,15,16,17-decahydro-6H-cyclopenta[a]phenanthren-15-yl)-N-(5-methylthiazol-2-yl)propanamide]	90	2
CC(=O)Oc1cc2c(cc1F)C1CC[C@]3(C)C(=O)C[C@@H](CCC(=O)Nc4ncc(C)s4)C3C1CC2 (stereo partly drawn) [Compound 69, (13S,15R)-2-fluoro-13-methyl-15-(3-((5-methylthiazol-2-yl)amino)-3-oxopropyl)-17-oxo-7,8,9,11,12,13,14,15,16,17-decahydro-6H-cyclopenta[a]phenanthren-3-yl acetate]	57	4
Cc1cnc(NC(=O)CC[C@@H]2/C(=C/O)C(=O)[C@@]3(C)CCC4c5ccc(O)cc5CCC4C23)s1 (stereo partly drawn) [Compound 95, 3-{(13S,15S)-3-Hydroxy-16-[1-hydroxy-methylidene]-13-methyl-17-oxo-7,8,9,11,12,13,14,15,16,17-decahydro-6H-cyclopenta[a]phenanthren-15-yl}-N-(5-methylthiazol-2-yl)propanamide]	97	3
Cc1cnc(NC(=O)CC[C@@H]2CC(=O)[C@@]3(C)CCC4c5ccc(OS(C)(=O)=O)c([N+](=O)[O-])c5CCC4C23)s1 (stereo partly drawn) [Compound 39, (13S,15R)-13-methyl-15-(3-((5-methylthiazol-2-yl)amino)-3-oxopropyl)-4-nitro-17-oxo-7,8,9,11,12,13,14,15,16,17-decahydro-6H-cyclopenta[a]phenanthren-3-yl methanesulfonate]	96	1
COc1cc2c(cc1C(C)=O)C1CC[C@]3(C)C(=O)C[C@@H](CCC(=O)Nc4ncc(C)s4)C3C1CC2 (stereo partly drawn) [Compound 33, 3-((13S,15R)-2-acetyl-3-methoxy-13-methyl-17-oxo-7,8,9,11,12,13,14,15,16,17-decahydro-6H-cyclopenta[a]phenanthren-15-yl)-N-(5-methylthiazol-2-yl)propanamide]	71	3
Cc1cnc(NC(=O)CC[C@@H]2CC(=O)[C@@]3(C)CCC4c5cc6ncoc6c(F)c5CCC4C23)s1 (stereo partly drawn) [Compound 78, 3-((3R,12aS)-6-fluoro-12a-methyl-1-oxo-2,3,3a,3b,4,5,10b,11,12,12a-decahydro-1H-cyclopenta[7,8]phenanthro[3,2-d]oxazol-3-yl)-N-(5-methylthiazol-2-yl)propanamide]	91	1
Cc1cnc(NC(=O)CC[C@@H]2CC(=O)[C@@]3(C)CCC4c5ccc(O)c(I)c5CCC4C23)s1 (stereo partly drawn) [Compound 54, 3-((13S,15R)-3-hydroxy-4-iodo-13-methyl-17-oxo-7,8,9,11,12,13,14,15,16,17-decahydro-6H-cyclopenta[a]phenanthren-15-yl)-N-(5-methylthiazol-2-yl)propanamide]	86	4
Cc1ccc(S(=O)(=O)Oc2ccc3c(c2)CCC2C3CC[C@]3(C)C(=O)C[C@@H](CCC(=O)Nc4ncc(C)s4)C23)cc1 (stereo partly drawn) [Compound 27, Toluene-4-sulphonic acid (13S,15R)-13-methyl-15-[2-(5-methylthiazol-2-ylcarbamoyl)-ethyl]-17-oxo-7,8,9,11,12,13,14,15,16,17-decahydro-6H-cyclopenta[a]phenanthren-3-yl ester]	81	5
Cc1cnc(NC(=O)CC[C@@H]2CC(=O)[C@@]3(C)CCC4c5cc(F)c(O)c(Br)c5CCC4C23)s1 (stereo partly drawn) [Compound 72, 3-((13S,15R)-4-bromo-2-fluoro-3-hydroxy-13-methyl-17-oxo-7,8,9,11,12,13,14,15,16,17-decahydro-6H-cyclopenta[a]phenanthren-15-yl)-N-(5-methylthiazol-2-yl)propanamide]	89	10
Cc1cnc(NC(=O)CC[C@@H]2CC(=O)[C@@]3(C)CCC4c5cc(F)c(O)cc5CCC4C23)s1 (stereo partly drawn) [Compound 67, 3-((13S,15R)-2-fluoro-3-hydroxy-13-methyl-17-oxo-7,8,9,11,12,13,14,15,16,17-decahydro-6H-cyclopenta[a]phenanthren-15-yl)-N-(5-methylthiazol-2-yl)propanamide]	98	6
Cc1cnc(NC(=O)CC[C@@H]2CC(=O)[C@@]3(C)CCC4c5cc(CN6CCCC6)c(O)cc5CCC4C23)s1 (stereo partly drawn) [Compound 45, 3-((13S,15R)-3-hydroxy-13-methyl-17-oxo-2-(pyrrolidin-1-ylmethyl)-7,8,9,11,12,13,14,15,16,17-decahydro-6H-cyclopenta[a]phenanthren-15-yl)-N-(5-methylthiazol-2-yl)propanamide]	83	0
Cc1cnc(NC(=O)CC[C@@H]2CC(=O)[C@@]3(C)CCC4c5c([N+](=O)[O-])ccc(O)c5CCC4C23)s1 (stereo partly drawn) [Compound 94, 3-((13S,15R)-4-hydroxy-13-methyl-1-nitro-17-oxo-7,8,9,11,12,13,14,15,16,17-decahydro-6H-cyclopenta[a]phenanthren-15-yl)-N-(5-methylthiazol-2-yl)propanamide]	95	4
Cc1cnc(NC(=O)CC[C@@H]2CC(=O)[C@@]3(C)CCC4c5cc(C(C)C)c(O)cc5CCC4C23)s1 (stereo partly drawn) [Compound 32, 3-((13S,15R)-3-hydroxy-2-isopropyl-13-methyl-17-oxo-7,8,9,11,12,13,14,15,16,17-decahydro-6H-cyclopenta[a]phenanthren-15-yl)-N-(5-methylthiazol-2-yl)propanamide]	84	1
Cc1cnc(NC(=O)CC[C@@H]2CC(=O)[C@@]3(C)CCC4c5cccc([N+](=O)[O-])c5CCC4C23)s1 (stereo partly drawn) [Compound 85, 3-((13S,15R)-13-methyl-4-nitro-17-oxo-7,8,9,11,12,13,14,15,16,17-decahydro-6H-cyclopenta[a]phenanthren-15-yl)-N-(5-methylthiazol-2-yl)propanamide]	93	2
